{
  "source": "patent US12102690B2",
  "about": "“Preparation method and application of biomimetic nano-protectant for detoxifying dox-induced cardiac and systemic toxicity” (priority 2021, dated 2024)",
  "key": {"H9C2 myocardial cells": {"system": "H9C2 myocardial cells", "assay": "Survival rate of myocardial cells with CCK-8 reagent after IC50 dose of DOX", "format": "cell-based, rat", "settings": "DOX group alone, 24 h", "method": "Different doses of biomimetic nano-protectant DNA&Pro@RBCM-PCM/KALA were added into H9C2 myocardial cells for incubation for 4 h; then, IC50 (50% Inhibitory Concentration) dose of DOX was added; the survival rate of H9C2 myocardial cells was detected with a CCK-8 reagent after 24 h; and a DOX group alone (with a DNA concentration of 0) and a treatment-free NC group (Negative Control) were set as experimental control groups. […] To further describe the protection mechanism of the biomimetic nano-protectant PCM/KALA-RBCM@DNA&Pro, in the invention, a dose of the biomimetic nano-protectant PCM/KALA-RBCM@DNA&Pr (NPs) is determined for protecting the damage of the IC50 dose of DOX to the H9C2 myocardial cells, while three important apoptosis pathway signal molecules (including Bax, Bcl2 and Caspase-3) are selected for Western Blot (WB) test (see FIG. 12)."}, "[1]": {"system": "TC1 cells subcutaneous transplanted tumor model of cervical cancer", "assay": "Tumor inhibition in subcutaneous transplanted tumor model of cervical cancer", "format": "in vivo", "settings": "Day24, TC1 tumor-bearing B6 rats", "method": "(§1) When the tumor volume reached 70-80 mm^3, the NPs+DOX group, the DOX group alone and the NC group were performed respectively; and then changes in size of tumor tissues and the changes in weight of B6 rats were observed and measured from Day0 to Day24. […] However, the volume of tumor tissues in the NC group increases to about 200 times of the initial volume on Day24 (FIG. 20A). […] Meanwhile, due to the rapid growth of tumor tissues in the NC group, the weight of NC group is increased greatly (FIG. 20B)."}, "[2]": {"assay": "Change in weight of tumor-bearing B6 rats", "format": "in vivo", "settings": "Day0 to Day24, TC1 tumor-bearing B6 rats", "method": "as §1"}},
  "data": [
    {"compound": "COc1cccc2c1C(=O)c1c(O)c3c(c(O)c1C2=O)C[C@@](O)(C(=O)CO)C[C@@H]3O[C@H]1C[C@H](N)[C@H](O)[C@H](C)O1", "note": "[DOX, doxorubicin]", "values": [
      {"measurement": "survival rate of H9C2 cells", "setting": "H9C2 myocardial cells", "result": "about 50%"},
      {"measurement": "tumor volume at the end of Day24 relative to the initial volume", "setting": "[1]", "result": "about 15 times of the initial volume"},
      {"measurement": "change in weight of B6 rats", "setting": "[2]", "result": "sudden loss of weight"}
    ]}
  ]
}
